Like-named read-outs stand apart in the source and are kept apart here.
Tests used:
[1] = system: plasminogen activator inhibitor-1 (PAI-1); experiment: PAI-1 protein level in HUVEC lysate; assay type: cell-based, human
Description: (§1) Cell lysates were stored at −80° C.
(§2) All values obtained were normalized against protein concentration.

thrombomodulin (TM) = system: thrombomodulin (TM)
Description: For LC-MS/MS sample preparation, cell culture media was removed, cells were washed with 10 mL of Dulbecco's phosphate-buffered saline (DPBS), and 500 μL of T-PER lysis buffer was added. Cell lysates were stored at −80° C. […] For the 4- and 8-hour incubations, cells were maintained by standard culture for the remainder of the 72-hour incubation period. Cell cycle protein levels were assessed using enzyme-linked immunosorbent assays.
HUVEC cells were exposed to compounds at concentrations of 1 nM, 3 nM, 10 nM, and 20 nM. […] The protein assays performed included measurements of total p21, thrombomodulin, total p53, PAI-1, and von Willibrand factor (vWF). All values obtained were normalized against protein concentration.

HUVEC [2] = experiment: Inhibition of HUVEC (EC) proliferation, continuous exposure, CyQUANT DNA dye; settings: Homo sapiens
Description: In vitro studies were conducted in cultured HUVECs (Lonza, Amboise, France). Cells were cultured in endothelial growth medium 2 cell culture media (EGM-2, Lonza, Amboise, France), passaged by seeding at 3×10^3 cells/mL on T175 flasks, and allowed to reach approximately 80% confluence before experiments were conducted. Cells were trypsinized and counted using trypan blue exclusion method using an automated Cedex cell counter.
(§3) After incubation with drug or vehicle, EC proliferation was analyzed using a DNA dye (CyQUANT®) added to lysed cells to provide a fluorescent signal relative to the amount of DNA, allowing a measure of cell density.

p21 = p21 protein level in HUVEC lysate; assay type: cell-based, human
Description: as §1, §2

[3] = assay type: in vivo
Description: Male beagle dogs 10 to 20 months of age (Marshall BioResources, North Rose, NY) were individually housed at the testing facility. […] […]. […] Body weight and food intake were recorded daily. Blood was collected before each dose and 4 hours after each dose for hematology (e.g., platelet count), coagulation parameters (e.g., thrombin time, antithrombin III), and protein panel analysis (e.g., D-dimer) (Nextcea, Woburn, Mass.).

HUVEC [4] = experiment: Inhibition of HUVEC proliferation as a function of drug exposure time (washout assay)
Description: as §3
A washout assay protocol is as follows: Day 1: plate cells: Plate cells at 0.3×10^4 cells/well in collagen coated 96-well plates; Incubate cells at 37° C., 5% CO2 in a humidified atmosphere overnight. Day 2: dilute and add MetAP2 inhibitor compounds: Dilute compounds in cell culture medium to the appropriate concentration. Add medium containing compound onto cells. Incubate cells at 37° C., 5% CO2 in a humidified atmosphere for the appropriate timepoint. Washout: After the indicated time, remove medium from the relevant samples and wash twice with PBS. Replace with fresh medium Incubate at 37° C., 5% CO2 in a humidified atmosphere until final incubation time. […] Measure cell proliferation using CyQuant assay.
The cells were incubated for 72 hrs and cell proliferation was measured to assess inhibition. […] Error bars represent the standard error of the mean for each condition (n=8 replicates per test condition pooled from 3 experiments).

p53 = p53 protein level in HUVEC lysate; assay type: cell-based, human; settings: discrete time intervals and concentrations (FIG. 4)
Description: as §1, §2

[5] = system: von Willebrand factor (vWF); experiment: vWF level in HUVEC lysate; assay type: cell-based, human; settings: discrete time intervals and concentrations (FIG. 3)
Description: as §1, §2

[6] = cited from earlier work
[7] = 72 hours of incubation, all concentrations (1, 3, 10, 20 nM)
[8] = shorter incubations of 4 or 8 hours
[9] = dogs, 2 mg/kg s.c. Q3D for 10 days
[10] = 10 nM, 2-hour incubation, washed (FIG. 6B)
[11] = patients with type 2 diabetes, 26 weeks of treatment
[12] = dogs, 0.6 mg/kg s.c. Q3D (FIG. 5)
[13] = exposures as short as one hour (FIG. 1C)

## CO[C@@H]1[C@H](OC(=O)N2CC(CCN3CCOCC3)C2)CC[C@]2(CO2)[C@H]1[C@@]1(C)O[C@@H]1CC=C(C)C [Compound A]
[1]; any of the concentrations or time points
  PAI-1 protein level: no effect on PAI-1 protein levels
Thrombomodulin (TM); [7]
  TM protein level: reduced TM protein levels
Thrombomodulin (TM); [8]
  TM protein level: no meaningful changes
HUVEC [2]; 72 h, read-out: concentration that inhibited EC proliferation by 50% (EC50)
  EC50: 0.24 nM
HUVEC [2]; read-out: HUVEC Proliferation (EC50, nM)
  EC50: 0.2 nM
p21; [7]
  p21 protein level: increased p21
p21; [8]
  p21 protein level: no meaningful changes
[3]; dog, in vivo, sc, 2 mg/kg
  tolerability: well tolerated
[3]; [9]
  body weight: Weight loss was observed
  food intake: unchanged
[3]; dogs, 2 mg/kg s.c. Q3D for 10 days (FIG. 5)
  changes in clinical observations, hematology (platelet count), D-dimer, thrombin time, antithrombin III: no adverse changes
[3]; dogs, 2 mg/kg s.c. Q3D, scheduled dosing period
  survival: all animals survived
HUVEC [4]; [10]
  effect on cell proliferation measured at 72 hours: no effect on cell proliferation
HUVEC [4]; 4 hours or less, concentrations up to 50× the EC50
  effect on cell proliferation after short-term exposure: no effect on cell proliferation
HUVEC [4]; FIG. 1B
  continuous exposure time needed for robust inhibition of EC proliferation: ≥ 48 h
HUVEC [4]; HUVEC proliferation, 6XIC90, 4 h exposure
  % inhibition 6XIC90 4 h exposure: 5.6%
HUVEC [4]; HUVEC proliferation, 6XIC90, 24 h exposure
  % inhibition 6XIC90 24 h exposure: 41%
HUVEC [4]; HUVEC proliferation, 20XIC90, 4 h exposure
  % inhibition 20XIC90 4 h exposure: 12.4%
HUVEC [4]; HUVEC proliferation, 20XIC90, 24 h exposure
  % inhibition 20XIC90 24 h exposure: 40%
p53
  p53 protein levels: no effects on p53 protein levels
[5]
  vWF levels: no effects on vWF levels

## CO[C@@H]1[C@H](OC(=O)/C=C/c2ccc(OCCN(C)C)cc2)CC[C@]2(CO2)[C@H]1[C@@]1(C)O[C@@H]1CC=C(C)C [Beloranib, beloranib]
[6]; patients with obesity, PWS, or type 2 diabetes
  adverse events: adverse events (AEs) of venous thromboembolism occurred
[6]; [11]
  reduction in HbA1c: 2.0%
  weight loss: 13%
[1]; 10 and 20 nM at the earliest timepoint
  PAI-1 protein level: increased PAI-1 levels
[1]; all concentrations at 72 hours
  PAI-1 protein level: increased PAI-1 levels
p21; [7]
  p21 protein level: increased p21
p21; short 4- or 8-hour incubations, 10 and 20 nM
  p21 protein level: increased p21
[3]; dogs, 0.6 mg/kg s.c. Q3D
  tolerability: not well tolerated
[3]; [12]
  D-dimer concentrations: increased
  antithrombin III: decreased
  platelet count: decreased
  thrombin time: decreased
[3]; dogs, 0.6 mg/kg s.c. Q3D, within 2 weeks of drug administration
  hemostasis in toxicology studies: some animals developed evidence of impaired hemostasis
HUVEC [4]; [10]
  reduction of cell proliferation measured at 72 hours: approximately 60%
HUVEC [4]; [13]
  effects on EC proliferation after short exposure: occurred rapidly
  lowest concentration with effects on EC proliferation at short exposure: 11 × the EC50
p53
  p53 protein levels: no effects on p53 protein levels
[5]
  vWF levels: no effects on vWF levels
